Reference: patent US8946301B2, “Targeting of T-lymphocytes to treat amyotrophic lateral sclerosis” (ALS Therapy Development Institute, priority 2011, dated 2015)
Entries after “also recorded” stand apart in the source; their conditions may differ.

Experiments:
[1] = system: lymphocytes, dendritic cells, regulatory T cells; conditions: cited from earlier work
[2] = system: CD11b positive macrophages; assay: Macrophage infiltration into gastrocnemius muscle / peripheral axons (anti-CD11b staining); format: in vivo, mouse; conditions: SOD1 animals, load 2.5 mg/kg then 1.8 mg/kg oral weekly from day 50, gastrocnemius at day 100, vs untreated SOD1
Description: SOD1 animals were treated with a loading dose of 2.5 mg/kg fingolimod, followed by weekly oral dosing of 1.8 mg/kg. Dosing was initiated at 50 days of age for the three cohorts: • 1) Non transgenic controls • 2) untreated SOD1 • 3) SOD1 Fingolimod Treated “High Dose” (Load 2.5 mg/kg, 1.8 mg/kg Oral q7d)
Gastrocnemius muscle was harvested from non-transgenic control, untreated SOD1 and fingolimod treated animals at 100 days of age. Tissues were immediately embedded in OCT after harvesting. Frozen sections were H&E stained and hybridized with antibodies to detect macrophages (αCD11b antibody).

CD4+ lymphocytes = assay: FACS analysis of circulating CD4+ lymphocytes in whole blood of SOD1 mice; format: in vivo, mouse; conditions: for CD4+ cells in whole blood: 4 hours after third dose, control approximately 12%
Description: FIG. 3B is a FACS analysis showing the reduction of CD4+ lymphocytes in the circulation of male SOD1 mice that received fingolimod treatment. Dosing of fingolimod and time points were the same as in FIG. 3A.
The following dosage regimen was used to determine the dose dependent effects of fingolimod in SOD1 mice: • Cohorts: • 1) SOD1 Fingolimod Treated “High Dose” (Load 2.5 mg/kg, 1.8 mg/kg Oral q7d) • 4 hour post final dose harvest • 7 day post final dose harvest • 2) SOD1 Fingolimod Treated “Low Dose” (Load 0.44 mg/kg, 0.32 mg/kg Oral q7d) • 4 hour post final dose harvest • 7 day post final dose harvest • 3) SOD1 Vehicle Control • 4 hour post final dose harvest • 7 day post final dose harvest
The predicted plasma fingolimod load for both the high dose and the low dose regimes were determined, see FIGS. 2A and 2B. Tissues were harvested 4 hours after the third fingolimod dose. This time point was selected to best characterize the behavior of lymphocytes in animals treated with fingolimod when circulating levels of the drug are near peak concentration.

[3] = whole blood, vs vehicle control

CCCCCCCCc1ccc(CCC(N)(CO)CO)cc1 [fingolimod, 2-amino-2-(4-octylphenethyl)propane-1,3-diol]
circulating dendritic cells ([1]; Lan 2005, 2008): large increase
effect on lymphocyte population ([1]; Tsunemi 2010 and Zemann 2006): lymphopenia
regulatory T cells ([1]; Zhang et al. 2009): increase
CD11b positive macrophages infiltrating the skeletal muscle / peripheral axons [2]: significantly fewer
CD11b positive macrophages infiltrating the skeletal muscle / peripheral axons ([2]; listed as Fingolimod): ability to block macrophage infiltration into peripheral axons
circulating CD4 positive cells in whole / peripheral blood (in words) (CD4+ lymphocytes; SOD1 animals, high and low dose groups): fewer; also recorded: transiently depletes
CD4+ cells in whole blood (CD4+ lymphocytes; high dose (load 2.5 mg/kg, 1.8 mg/kg q7d)): approximately 5%
CD4+ cells in whole blood (CD4+ lymphocytes; low dose (load 0.44 mg/kg, 0.32 mg/kg q7d)): approximately 5%
reduction in CD4+ cells (CD4+ lymphocytes; [3]): at least 50%
reduction in CD4+ cells (fold) (CD4+ lymphocytes; [3]): over two-fold
